# Experiments:
# [1] = biological target: serotonin transporter (Rattus norvegicus (Rat), UniProt P31652); experiment: Inhibitory effect on [3H]5-HT uptake in rat synaptosome; format: biochemical; details: rat brain synaptosomes, 37° C., 15 minutes, 0.1 μCi [3H]5-HT
# Description: The synaptosomes (150 μg) prepared from the rat brain were incubated at 37° C. for 15 minutes with 0.1 μCi [^3H]5-HT in the absence or presence of the test compound or the reference compound in a buffer solution containing 106.2 mM NaCl, 4.5 mM KCl, 2.25 mM MgSO4, 1.08 mM NaH2PO4, 22.5 mM NaHCO3, 9.9 mM glucose, 9 μM EGTA and 45 μM ascorbic acid (pH 7.4).
# Inhibition of serotonin transporter in rat synaptosome was measured by the concentrations of [^3H]5-HT.
# [2] = biological target: dopamine D2S receptor (Homo sapiens (Human), UniProt P14416); experiment: Affinity for human dopamine D2S receptor ([3H]methyl-spiperone binding); details: 0.3 nM [3H]methyl-spiperone, cell membrane homogenates, 22° C., 60 minutes
# Sequence of dopamine D2S receptor (P14416 other isoform, or with tags, fused parts or gaps): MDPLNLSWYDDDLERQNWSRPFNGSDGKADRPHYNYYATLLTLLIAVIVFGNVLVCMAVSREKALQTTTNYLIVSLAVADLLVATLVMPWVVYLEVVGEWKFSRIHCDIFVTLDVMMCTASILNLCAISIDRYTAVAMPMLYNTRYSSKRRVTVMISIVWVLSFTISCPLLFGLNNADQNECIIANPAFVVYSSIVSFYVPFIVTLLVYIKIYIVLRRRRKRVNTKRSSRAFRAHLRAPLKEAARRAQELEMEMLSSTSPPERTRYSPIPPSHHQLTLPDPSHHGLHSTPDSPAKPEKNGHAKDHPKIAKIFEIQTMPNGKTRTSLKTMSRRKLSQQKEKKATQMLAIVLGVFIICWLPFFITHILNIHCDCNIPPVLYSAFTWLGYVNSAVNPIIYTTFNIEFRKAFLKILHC
# Description: Cell membrane homogenates (24 μg protein) were incubated at 22° C. for 60 minutes with 0.3 nM [3H]methyl-spiperone in the absence or presence of the test compound in a buffer solution containing 50 mM Tris-HCl (pH 7.4), 120 mM NaCl, 5 mM KCl, 5 mM MgCl2 and 1 mM EDTA.
# The non-specific binding value was determined by incubating the same mixture in the presence of 10 μM (+)butaclamol.
# Following the incubation, the samples were filtered rapidly under vacuum through glass fiber filter (GF/B, Packard) presoaked with 0.3% PEI and rinsed several times with ice-cold 50 mM Tris-HCl using a 96-sample cell harvester (Unifilter, Packard). The filters were dried and the retained radioactivity was measured in a scintillation counter (Topcount, Packard) using a scintillation cocktail (Microscint 0, Packard).
# The experimental results were expressed as a percent inhibition of the control radioligand specific binding, and Ki was the inhibition constant. The standard reference compound was (+)butaclamol, which was tested in each experiment at several concentrations to obtain a competition curve from which its IC50 was calculated, and then Ki value was calculated by ChengPrusoff equation.
# [3] = biological target: 5-HT1A receptor (Homo sapiens (Human), UniProt P08908); experiment: Affinity for human 5-HT1A receptor ([3H]8-OH-DPAT binding, HEK-293 cell homogenates); details: read-out: Ki, binding affinity for 5-HT1A receptor; 0.3 nM [3H]8-OH-DPAT, human HEK-293 cell homogenates, 22° C., 60 minutes;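 further: Filter-retained radioactivity counted by scintillation, non-specific binding defined with 10 µM 8-OH-DPAT, Ki derived from percent inhibition of specific radioligand binding versus control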
# Sequence of 5-HT1A receptor (P08908 whole entry): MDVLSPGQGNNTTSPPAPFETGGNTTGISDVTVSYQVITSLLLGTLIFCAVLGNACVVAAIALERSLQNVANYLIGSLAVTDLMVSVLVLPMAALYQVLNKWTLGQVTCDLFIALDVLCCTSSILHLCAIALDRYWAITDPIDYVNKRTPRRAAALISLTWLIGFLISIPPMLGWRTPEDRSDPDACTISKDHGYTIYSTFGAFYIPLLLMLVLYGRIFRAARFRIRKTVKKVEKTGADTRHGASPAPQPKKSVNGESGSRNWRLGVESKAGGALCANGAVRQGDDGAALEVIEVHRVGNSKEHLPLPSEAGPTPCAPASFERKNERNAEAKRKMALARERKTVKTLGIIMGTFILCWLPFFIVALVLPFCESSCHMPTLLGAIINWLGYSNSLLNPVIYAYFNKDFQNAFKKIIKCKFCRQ
# Description: The non-specific binding value was determined by incubating the same mixture in the presence of 10 μM 8-OH-DPAT, which was used as the standard reference compound and tested in each experiment at several concentrations to obtain a competition curve.
# Following the incubation, the samples were filtered rapidly under vacuum through glass fiber filter (GF/B, Packard) presoaked with 0.3% PEI and rinsed several times with ice-cold 50 mM Tris-HCl using a 96-sample cell harvester (Unifilter, Packard). The filters were dried and the retained radioactivity was measured in a scintillation counter (Topcount, Packard) using a scintillation cocktail (Microscint 0, Packard). The experimental results were expressed as a percent inhibition of the control radioligand specific binding, and Ki was the inhibition constant.
# Sequence of serotonin transporter (P31652 whole entry): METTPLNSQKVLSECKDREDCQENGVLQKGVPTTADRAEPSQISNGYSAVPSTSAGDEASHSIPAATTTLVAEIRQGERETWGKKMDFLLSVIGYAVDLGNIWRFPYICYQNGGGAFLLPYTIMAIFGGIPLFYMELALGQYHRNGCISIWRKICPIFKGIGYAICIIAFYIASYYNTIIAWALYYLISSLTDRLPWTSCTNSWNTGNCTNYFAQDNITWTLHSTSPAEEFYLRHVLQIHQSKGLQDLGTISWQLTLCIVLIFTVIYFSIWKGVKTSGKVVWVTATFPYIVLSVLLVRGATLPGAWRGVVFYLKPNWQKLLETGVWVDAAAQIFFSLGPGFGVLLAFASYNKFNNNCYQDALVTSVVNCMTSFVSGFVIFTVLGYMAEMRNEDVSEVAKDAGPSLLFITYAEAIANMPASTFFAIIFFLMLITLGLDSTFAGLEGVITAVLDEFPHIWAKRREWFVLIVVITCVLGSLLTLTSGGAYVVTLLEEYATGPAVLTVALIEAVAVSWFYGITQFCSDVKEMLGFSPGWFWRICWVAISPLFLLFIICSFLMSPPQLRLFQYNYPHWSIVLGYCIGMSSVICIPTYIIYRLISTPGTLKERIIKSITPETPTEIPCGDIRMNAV
SMILES,IC50 [1],Ki [2],Ki [3]
"N#Cc1ccc2[nH]cc(CCCN3CCN(c4nccc(C#N)n4)CC3)c2c1 [Example 26, 3-(3-(4-(4-Cyanopyrimidin-2-yl)piperazin-1-yl)propyl)-1H-indole-5-carbonitrile]",2.6 nM,190 nM,8 nM
"NC(=O)c1ccnc(N2CCN(CCCCc3c[nH]c4ccc(F)cc34)CC2)n1 [Example 27, 2-(4-(4-(5-Fluoro-1H-indol-3-yl)butyl)piperazin-1-yl)pyrimidine-4-carboxamide]",2.7 nM,> 1000 nM,60 nM
"N#Cc1ccc2[nH]cc(CCCCN3CCN(c4nccc(C(N)=O)n4)CC3)c2c1 [Example 28, 2-(4-(4-(5-Cyano-1H-indol-3-yl)butyl)piperazin-1-yl)pyrimidine-4-carboxamide]",1 nM,310 nM,10 nM
"NC(=O)c1ccnc(N2CCN(CCCc3c[nH]c4ccc(F)cc34)CC2)n1 [Example 29, 2-(4-(3-(5-Fluoro-1H-indol-3-yl)propyl)piperazin-1-yl)pyrimidine-4-carboxamide]",1.4 nM,230 nM,12 nM
"N#Cc1ccc2[nH]cc(CCCN3CCN(c4nccc(C(N)=O)n4)CC3)c2c1 [Example 30, 2-(4-(3-(5-Cyano-1H-indol-3-yl)propyl)piperazin-1-yl)pyrimidine-4-carboxamide]",0.75 nM,> 1000 nM,14 nM
"CCOC(=O)c1sc(N2CCN(CCCCc3c[nH]c4ccc(F)cc34)CC2)nc1C [Example 37, Ethyl 2-(4-(4-(5-fluoro-1H-indol-3-yl)butyl)piperazin-1-yl)-4-methylthiazole-5-carboxylate]",7 nM,130 nM,5.5 nM
"CCOC(=O)c1sc(N2CCN(CCCc3c[nH]c4ccc(F)cc34)CC2)nc1C [Example 38, Ethyl 2-(4-(3-(5-fluoro-1H-indol-3-yl)propyl)piperazin-1-yl)-4-methylthiazole-5-carboxylate]",11 nM,270 nM,0.27 nM
"CCOC(=O)c1sc(N2CCN(CCCc3c[nH]c4ccc(C#N)cc34)CC2)nc1C [Example 40, Ethyl 2-(4-(3-(5-cyano-1H-indol-3-yl)propyl)piperazin-1-yl)-4-methylthiazole-5-carboxylate]",3.5 nM,> 1000 nM,0.3 nM
"Cc1nc(N2CCN(CCCCc3c[nH]c4ccc(F)cc34)CC2)sc1C(N)=O [Example 41, 2-(4-(4-(5-Fluoro-1H-indol-3-yl)butyl)piperazin-1-yl)-4-methylthiazole-5-carboxamide]",2.4 nM,140 nM,23 nM
"Cc1nc(N2CCN(CCCc3c[nH]c4ccc(F)cc34)CC2)sc1C(N)=O [Example 42, 2-(4-(3-(5-Fluoro-1H-indol-3-yl)propyl)piperazin-1-yl)-4-methylthiazole-5-carboxamide]",5.3 nM,310 nM,4.5 nM
"Cc1nc(N2CCN(CCCc3c[nH]c4ccc(C#N)cc34)CC2)sc1C(N)=O [Example 44, 2-(4-(3-(5-Cyano-1H-indol-3-yl)propyl)piperazin-1-yl)-4-methylthiazole-5-carboxamide]",4.3 nM,> 1000 nM,3.7 nM
"Cc1nc(N2CCN(CCCCc3c[nH]c4ccc(F)cc34)CC2)sc1C#N [Example 45, 2-(4-(4-(5-Fluoro-1H-indol-3-yl)butyl)piperazin-1-yl)-4-methylthiazole-5-carbonitrile]",8.3 nM,> 1000 nM,14 nM
"Cc1nc(N2CCN(CCCc3c[nH]c4ccc(F)cc34)CC2)sc1C#N [Example 46, 2-(4-(3-(5-Fluoro-1H-indol-3-yl)propyl)piperazin-1-yl)-4-methylthiazole-5-carbonitrile]",18 nM,> 1000 nM,4.2 nM
"Cc1nc(N2CCN(CCCCc3c[nH]c4ccc(C#N)cc34)CC2)sc1C#N [Example 47, 2-(4-(4-(5-Cyano-1H-indol-3-yl)butyl)piperazin-1-yl)-4-methylthiazole-5-carbonitrile]",1.5 nM,130 nM,5 nM

# — patent publication US9598401B2, “Substituted heteroaryl compounds and methods of use thereof” (Sunshine Lake Pharma Co., Ltd., priority 2013, dated 2017)
